The numbers were not newly measured in patent publication US20240182421A1, “SYNTHESIS OF ENDOCHIN-LIKE QUINOLONES” (Oregon Health & Science University, priority 2021, published 2024), which cites them from elsewhere.

SMILES strings stand for the structures. “Also recorded” adds a separate entry of the source.

One data set deals with avian malaria. As to conditions: in vivo.
The subject of data set [1] is apicomplexan parasites of importance to veterinary medicine.
For another data set, the system named is malaria. The conditions noted are these: compared with ELQ-300.

As to `CCCCCCCc1c(C)[nH]c2cc(OC)ccc2c1=O` [endochin], the “activity in the avian malaria model” value in the data set on avian malaria is reported as “high activity”.
Consider `COc1cc2[nH]c(C)c(-c3ccc(Oc4ccc(OC(F)(F)F)cc4)cc3)c(=O)c2cc1Cl` [ELQ-300, 6-Chloro-7-methoxy-2-methyl-3-(4-(4-(trifluoromethoxy)phenoxy)phenyl)quinolin-4(1H)-one], for which, in data set [1], the “activity against a range of apicomplexan parasites of importance to veterinary medicine” value is recorded as “active”.
In the case of `COc1cc2[nH]c(C)c(-c3ccc(Oc4ccc(OC(F)(F)F)cc4)cc3)c(=O)c2cc1F` [ELQ-316, 6-Fluoro-7-methoxy-2-methyl-3-(4-(4-(trifluoromethoxy)phenoxy)phenyl)quinolin-4(1H)-one], in data set [1], the “activity against a range of apicomplexan parasites of importance to veterinary medicine” value is listed as “active”. Moreover, the “antiparasitic activity / potency against Babesia microti” value in the data set on Babesia microti was “greatest potency; also recorded: superior antiparasitic activity”. The “antiparasitic activity / potency against Toxoplasma gondii” value in the data set with Toxoplasma gondii is “greatest potency; also recorded: superior antiparasitic activity”. The “antimalarial activity in vivo” value in the data set on malaria was “slightly less antimalarial activity than ELQ-300”.
